Measured values published in patent US20220280508A1 (priority 2019, published 2022).
“Also recorded” adds a separate entry of the source. Marks after values point to notes of the source that are not given here.

What was measured:
iNOS = type: cell-based, Mouse
influenza = conditions: human, in vivo
PR8 influenza virus = conditions: mouse, in vivo
HSV-1 = type: in vivo, Kunming mice; conditions: n 15
Staphylococcus aureus = type: in vivo, ICR mice; conditions: n = 10
Streptococcus pneumoniae = type: in vivo, ICR mice; conditions: n = 10
[1] = test system: Mycoplasma pneumoniae (ATCCFH15531); type: in vivo, BALB/C mice
Pseudomonas aeruginosa = type: in vivo, BAL B/C male mice; conditions: 14 days

Compound: 6S-5-methyltetrahydrofolate calcium
- expression of iNOS in macrophages induced by LPS (iNOS): did not affect expression of iNOS; also recorded: almost no effect
- Mean disappearance time: Cough (influenza): 35.7 h
- Mean disappearance time: Dizziness and fullness in head (influenza): 28.5 h
- Mean disappearance time: Dry and itchy throat (influenza): 15.0 h
- Mean disappearance time: Fatigue (influenza): 14.1 h
- Mean disappearance time: Headache (influenza): 13.7 h
- Mean disappearance time: Inappetence (influenza): 13.0 h
- Mean disappearance time: Intolerance of cold and cold limbs (influenza): 10.0 h
- Mean disappearance time: Low fever (influenza): 10.0 h
- Mean disappearance time: Muscular soreness (influenza): 14.9 h
- Mean disappearance time: Nasal stuffiness (influenza): 23.0 h
- Mean disappearance time: Running nose (influenza): 20.6 h
- Mean disappearance time: Sneezing (influenza): 18.1 h
- Mean disappearance time: Sore throat (influenza): 29.4 h
- Mean time: Basic rehabilitation (influenza): 27.4 h
- Mean time: Complete rehabilitation (influenza): 32.9 h
- disappearance time of symptoms: Dry and itchy throat (influenza): 15 h
- disappearance time of symptoms: Inappetence (influenza): 13 h
- disappearance time of symptoms: Intolerance of cold and cold limbs (influenza): 10 h
- disappearance time of symptoms: Low fever (influenza): 10 h
- time in which the patients' influenza almost all healed (influenza): ≤ 2 days
- condition of the administration group (body weight, body temperature, food intake, water intake, survival curves) (PR8 influenza virus): greatly improved
- secretion of NO in macrophages (Macrophage RAW264.7): promote the secretion of NO
- expression of macrophages and inflammatory factors induced by LPS (TNF-α, IL-1α, IL-6): no significant effect

Compound: Nc1nc2c(ncn2COCCO)c(=O)[nH]1 [Acyclovir, acyclovir]
- Mortality (HSV-1): 60%
- Number of deaths, 48 h (HSV-1): 0
- Number of deaths, D4 (HSV-1): 4
- Number of deaths, D7 (HSV-1): 5

Compound: CC1(C)S[C@@H]2[C@H](NC(=O)[C@H](N)c3ccc(O)cc3)C(=O)N2[C@H]1C(=O)O [Amoxicillin, amoxicillin]
- Survival rate, Staphylococcus aureus (Staphylococcus aureus): 70** %
- Survival rate, Streptococcus pneumoniae (Streptococcus pneumoniae): 50* %

Compound: NC(=O)c1ccc[n+]([C@@H]2O[C@H](COP(=O)([O-])O)[C@@H](O)[C@H]2O)c1 [NMN, nicotinamide mononucleotide]
- expression of iNOS in macrophages induced by LPS (iNOS): did not affect expression of iNOS; also recorded: almost no effect

Compound: CC[C@H]1OC(=O)[C@H](C)[C@@H](O[C@H]2C[C@@](C)(OC)[C@@H](O)[C@H](C)O2)[C@H](C)[C@@H](O[C@@H]2O[C@H](C)C[C@H](N(C)C)[C@H]2O)[C@](C)(O)C[C@@H](C)CN(C)[C@H](C)[C@@H](O)[C@]1(C)O [azithromycin]
- Histopathological examination of the lung tissue ([1]; 10 days): Mild interstitial pneumonia
- Splenic index ([1]; mouse, in vivo): 4.515 ± 0.982 mg/g
- Thymic index ([1]; mouse, in vivo): 3.818 ± 1.232 mg/g

Compound: O=C1O[C@H]([C@@H](O)CO)C(=O)C1=O [dehydroascorbic acid]
- expression of iNOS in macrophages induced by LPS (iNOS): almost no effect

Compound: N[C@@H](CCC(=O)N[C@@H](CS)C(=O)NCC(=O)O)C(=O)O [glutathione, reference compound]
- expression of iNOS in macrophages induced by LPS (iNOS): did not affect expression of iNOS; also recorded: almost no effect

Compound: C[C@@H](O)[C@H]1C(=O)N2C(C(=O)O)=C(S[C@@H]3CN[C@H](C(=O)N(C)C)C3)[C@H](C)[C@H]12 [meropenem]
- survival of mice infected with the fatal dose of Pseudomonas aeruginosa (Pseudomonas aeruginosa): 100%

Compound: penicillin
- survival of mice infected with the fatal dose of Pseudomonas aeruginosa (Pseudomonas aeruginosa): all the mice in the penicillin group died
